Tests used:
[1] = Population pharmacokinetics of vancomycin in neonates (hierarchical Bayesian one-compartment model); format: in vivo
Description: Briefly, in step 305, a one-compartment linear disposition model with zero order input (one hour intravenous infusion) and first-order elimination was used to describe the data collected in step 301. In step 303 Weight (Wt) and estimated glomerular filtration rate (EGFR) were included as covariates on clearance (CL), and weight was included as covariate on volume of distribution (V). Back in step 305, a lognormal distribution was used to describe the between-subject-variability (BSV) in model parameter estimates CL and V, as expressed in Equation 8 and Equation 9.
where CLi and Vi are the true parameters for the individual, CLtypical and Vtypical are the population value of the parameters, and ηCL and ηv denote the deviation between the typical value of the parameters and the true parameter value of an individual. The coefficient that describes the relationship between EGFR and CLtypical is denoted by CLEGFR. […] In Table 1, PM indicates posterior median; LCI indicates lower credible interval; and UCI indicates upper credible interval. In other embodiments, based on different datasets or different training approaches, the parameter values are expected to differ to some degree.

[2] = cited from earlier work

## CN[C@H](CC(C)C)C(=O)N[C@H]1C(=O)N[C@@H](CC(N)=O)C(=O)N[C@H]2C(=O)N[C@H]3C(=O)N[C@H](C(=O)N[C@H](C(=O)O)c4cc(O)cc(O)c4-c4cc3ccc4O)[C@H](O)c3ccc(c(Cl)c3)Oc3cc2cc(c3O[C@@H]2O[C@H](CO)[C@@H](O)[C@H](O)[C@H]2O[C@H]2C[C@](C)(N)[C@H](O)[C@H](C)O2)Oc2ccc(cc2Cl)[C@H]1O [vancomycin]
[1]; in vivo
  Interindividual variability CL, posterior median: 22.9 % CV
  Interindividual variability V, posterior median: 15.4 % CV
  Residual variability, proportional, posterior median: 17.3 % CV
[1]; typical individual 2.9 kg, estimated glomerular filtration rate of 30 mL/min per 1.73 m^2, one hour intravenous infusion
  CLtypical, posterior median: 0.167 L/h
[2]; current practice
  patients with AUC0-24 hr exceeding 600: over 30%
[2]; with TDM
  final target attainment: ~45%
[2]; with dosing nomograms, studies across the US and Europe
  neonates that initially achieve recommended target concentrations: 37%

From patent publication US20210035672A1, “METHOD AND […] FOR INDIVIDUALIZED ADMINISTRATION OF MEDICAMENTS FOR […] WITHIN A T[…]” (University Of Maryland, Baltimore, priority 2018, published 2021)
